Results: patent US20220193060A1, “Inhibition of IL-1 Induced Inflammation” (THIOLAB, LLC., priority 2019, published 2022)

Key:
IL-1β = IL-1β ELISA, PMA-treated THP-1 cells stimulated with IFNγ and LPS; type: cell-based, human; details: for Ave IL-Ib 1/10 Avg / Ave IL-Ib 1/10 Rep 1 / Ave IL-Ib 1/10 Rep 2 / Ave IL-Ib 2/28 Rep 1 / Ave IL-Ib 2/28 Rep 2 / Ave IL-Ib 2/28 Rep 3 / IL-1β Relative %: THP-1
Description: Methodology: The study included replicated tests of IL-1β levels with and without CPDS, as well as reference testing of untreated cells and cells treated with lactoferrin and clobetasol. A third test was conducted of IL-1 receptor […] (IL-1RA) receptor, to assist in distinguishing whether reductions in IL-1β levels were associated with secretion or receptor blocking (via the receptor antagonist). Cell viability studies were conducted for both sets of tests. Each of the tests used an ELISA model with the following protocols. 1. THP-1 cells were grown in (RPMI+10% FBS, 10 mM HEPES, 1 mM Sodium Pyruvate, and 0.05 mM 2-Mecaptpethanol) to P8. 2. Cells were plated at 30,000 cells per well in 120 ul with Media+20 ng/ml PMA+2× Genta. 3. […] Cells were treated according to plan below. 5. Cells were incubated for three more days at 37° C. and 5% CO2. 6. Cell supernatant were collected and ELISA was measured for IL-1RA, IL-1α, and IL-1β. 7. Plate was read at 490 nm until O.D reached 1.5. Day 1—1. THP-1+20 ng/ml PMA 30,000 cells per well 120 uL Day 3—1. Add Compound at 4× in 60 uL. Incubate for 2 hours. CPDS—800 uM (200 uM Final), lactoferrin—800 ug/mL (200 ug/ml Final) clobetasol −40 ng/mL (10 ng/mL Final). 2. […] Add 30 uL LPS at 8×—20 ng/ml (2.5 ng/ml final) in 30 uL (Wells 2-10) 4. Incubate for 3 days. Day 6—1. Collect 80 ul of sample 2 times and freeze for ELISA. 2. Develop with 15 uL of Substrate and read at 490 nm until plate reaches 1.5 OD. THP-1 is a spontaneously immortalized monocyte-like cell line, derived from the peripheral blood of a childhood case of acute monocytic leukemia, which has been extensively used to study monocyte/macrophage functions, mechanisms, signaling pathways, and nutrient and drug transport. This cell line has become a common model to estimate modulation of monocyte and macrophage activities.

RAW 264.7 cells = assay: Cell viability of RAW 264.7 cells; type: cell-based; details: murine RAW 264.7 cells
colonic polyps = assay: Case: oral CPDS for colonic polyps; type: in vivo, human; details: person; oral 140 mg per day; 1, 3, 9, and 10 months
Description: An individual was diagnosed with colon neoplasia. About one month after the initial diagnosis, the individual underwent semi colotomy at which time about 45 cm of their colon was removed. […] The polyps were cauterized at that time. About one month later, the individual began treatment with CPDS which was administered orally at a dose of 140 mg per day.

IL-10 = assay: LPS-stimulated macrophages, IL-10 ELISA; type: cell-based, murine; details: CPDS (e.g., 50 μM) 90 minutes before LPS (10 ug/ml), 24 to 48 hours
Description: An in vitro model of inflammation mediated by macrophages is used. Primary macrophages isolated from humans or non-human species (e.g., mice or rats) were used. A murine macrophage cell line RAW264.7 (CCRL-2278) was also used. Macrophages are treated with CPDS. […] Then the effect of CPDS on inflammation is assessed by comparing the levels of […] mediators IL-6 and IL-10. IL-10 and IL-6 were determined by ELISA. The level of IL-6 and IL-10 were compared to the level prior to CPDS treatment.

arthritic psoriasis = assay: Case: oral CPDS for arthritic psoriasis; type: in vivo, human; details: oral 140 mg/day, 4 days a week
Description: The patient was a person. Their disease began 1 year previously. Their main complaint was pain in their right wrist, which prevented them from using their right hand and arm; they had bothersome itching cutaneous psoriatic lesions. Treatment at the time consisted of cortisone (5 mg/day) and non-steroidal anti-inflammatory drugs and weekly administrations of methotrexate (MTX) 5 mg/week. The side effects of MTX were severe stomach, throat, and mouth lesions, nightmares, visual hallucinations, and dizziness. The patient began taking oral CPDS 90 days previous (140 mg/day), 4 days a week. Within a few days, the side effects of MTX became much milder, and their immune defenses increased. Instead of catching a cold, as they had often, that lasted for weeks and needed antibiotics, their colds were much more brief normal duration.

[1] = cited from earlier work
[2] = CPDS 1.6 uM + 10 ng/ml IFNy + 2.5 ng/ml LPS
[3] = CPDS 3.1 uM + 10 ng/ml IFNy + 2.5 ng/ml LPS
[4] = CPDS 6.3 uM + 10 ng/ml IFNy + 2.5 ng/ml LPS
[5] = CPDS 12.5 uM + 10 ng/ml IFNy + 2.5 ng/ml LPS
[6] = CPDS 25.0 uM + 10 ng/ml IFNy + 2.5 ng/ml LPS
[7] = CPDS 50.0 uM + 10 ng/ml IFNy + 2.5 ng/ml LPS
[8] = CPDS 100.0 uM + 10 ng/ml IFNy + 2.5 ng/ml LPS
[9] = CPDS 200.0 uM + 10 ng/ml IFNy + 2.5 ng/ml LPS
[10] = IV doses up to 300 mg/kg (1 mM)

## O=C(O)c1ccc(SSc2ccc(C(=O)O)cn2)nc1 [CPDS, 6,6′-dithiodinicotinic acid]
IL-1β; 25 μM
  neutralization of production of IL-1β in human cells: near neutralization
IL-1β; [2]
  Ave IL-Ib 1/10 Avg: 0.19 ng/mL
  Ave IL-Ib 1/10 Rep 1: 0.19 ng/mL
  Ave IL-Ib 1/10 Rep 2: 0.18 ng/mL
  Ave IL-Ib 2/28 Rep 1: 0.32 ng/mL
  Ave IL-Ib 2/28 Rep 2: 0.29 ng/mL
  Ave IL-Ib 2/28 Rep 3: 0.30 ng/mL
  IL-1β Relative %: 114.2%
IL-1β; [3]
  Ave IL-Ib 1/10 Avg: 0.19 ng/mL
  Ave IL-Ib 1/10 Rep 1: 0.21 ng/mL
  Ave IL-Ib 1/10 Rep 2: 0.17 ng/mL
  Ave IL-Ib 2/28 Rep 1: 0.30 ng/mL
  Ave IL-Ib 2/28 Rep 2: 0.26 ng/mL
  Ave IL-Ib 2/28 Rep 3: 0.28 ng/mL
  IL-1β Relative %: 105.2%
IL-1β; [4]
  Ave IL-Ib 1/10 Avg: 0.15 ng/mL
  Ave IL-Ib 1/10 Rep 1: 0.15 ng/mL
  Ave IL-Ib 1/10 Rep 2: 0.14 ng/mL
  Ave IL-Ib 2/28 Rep 1: 0.23 ng/mL
  Ave IL-Ib 2/28 Rep 2: 0.24 ng/mL
  Ave IL-Ib 2/28 Rep 3: 0.24 ng/mL
  IL-1β Relative %: 88.7%
IL-1β; [5]
  Ave IL-Ib 1/10 Avg: 0.08 ng/mL
  Ave IL-Ib 1/10 Rep 1: 0.09 ng/mL
  Ave IL-Ib 1/10 Rep 2: 0.06 ng/mL
  Ave IL-Ib 2/28 Rep 1: 0.13 ng/mL
  Ave IL-Ib 2/28 Rep 2: 0.11 ng/mL
  Ave IL-Ib 2/28 Rep 3: 0.12 ng/mL
  IL-1β Relative %: 45.8%
IL-1β; [6]
  Ave IL-Ib 1/10 Avg: 0.04 ng/mL
  Ave IL-Ib 1/10 Rep 1: 0.05 ng/mL
  Ave IL-Ib 1/10 Rep 2: 0.03 ng/mL
  Ave IL-Ib 2/28 Rep 1: 0.04 ng/mL
  Ave IL-Ib 2/28 Rep 2: 0.03 ng/mL
  Ave IL-Ib 2/28 Rep 3: 0.04 ng/mL
  IL-1β Relative %: 13.7%
IL-1β; [7]
  Ave IL-Ib 1/10 Avg: 0.01 ng/mL
  Ave IL-Ib 1/10 Rep 1: 0.01 ng/mL
  Ave IL-Ib 1/10 Rep 2: 0.01 ng/mL
  Ave IL-Ib 2/28 Rep 1: 0.02 ng/mL
  Ave IL-Ib 2/28 Rep 2: 0.01 ng/mL
  Ave IL-Ib 2/28 Rep 3: 0.02 ng/mL
  IL-1β Relative %: 6.1%
IL-1β; [8]
  Ave IL-Ib 1/10 Avg: 0.01 ng/mL
  Ave IL-Ib 1/10 Rep 1: 0.01 ng/mL
  Ave IL-Ib 1/10 Rep 2: 0.01 ng/mL
  Ave IL-Ib 2/28 Rep 1: 0.03 ng/mL
  Ave IL-Ib 2/28 Rep 2: 0.01 ng/mL
  Ave IL-Ib 2/28 Rep 3: 0.02 ng/mL
  IL-1β Relative %: 8.2%
IL-1β; [9]
  Ave IL-Ib 1/10 Avg: 0.01 ng/mL
  Ave IL-Ib 1/10 Rep 1: 0.01 ng/mL
  Ave IL-Ib 1/10 Rep 2: 0.01 ng/mL
  Ave IL-Ib 2/28 Rep 1: 0.02 ng/mL
  Ave IL-Ib 2/28 Rep 2: 0.02 ng/mL
  Ave IL-Ib 2/28 Rep 3: 0.02 ng/mL
  IL-1β Relative %: 6.8%
IL-1β; FIG. 1, clinically obtainable levels of CPDS
  ability of IFN-γ to stimulate the production of IL-1β: markedly reduce
IL-1β; FIG. 2, in the presence of LPS
  levels of IL-1β: substantially reduce
IL-1β; concentration as low as 50 uM CPDS
  secretion of IL-1β blocked: 94%
IL-1β; concentrations of 12.5 to 200 μM
  neutralization of IL-1β: complete neutralization
IL-1β; concentrations of 12.5 to 200 μM, both tests
  reduction of measured IL-1β levels: 92-99%
IL-1β; concentrations ranging from 50-200 μM
  neutralization of production of IL-1β in human cells: completely neutralize
RAW 264.7 cells
  cytotoxicity (cell viability): no cytotoxicity
Colonic polyps
  growth of polyps at check-up visits: no new growth
IL-10
  expression level of IL-10: dramatically reduced
Arthritic psoriasis
  immune defenses: increased
Arthritic psoriasis; 90 days
  function of right hand and wrist: regained function
Arthritic psoriasis; person, within a few days
  side effects of MTX: much milder
[1]; [10]
  kidney or liver weight: slight increase
  lethality: not fatal
[1]; doses up to 300 mg/kg (1 mM) intravenous
  tolerability: tolerated
